The test system of series [1] is Carrageenin edema in rat's paw. Description: Carrageenin Edema Test in Rat's Paw (anti-inflammatory activity, Table 1). The class given is in vivo. To be noted: 100 mg/kg oral, hydrochloride, rat. How it is done: An anti-inflammatory activity was measured by orally administering 100 mg/kg of a hydrochloride of the indazole derivative of this invention as set forth in Table 1 to an animal in accordance with the standard method of Carrageenin Edema Test in Rat's Paw described in C. A. Winter et al., Proc. Soc. Exp. Biol. Med., 111, 544 (1962).

Another series can be described thus: in vivo. To be noted: mouse, ip, intraperitoneal, hydrochloride, male ddy mice.

Each structure is given as a SMILES string.

`Clc1ccc2[nH]nc(NCCCN3CCOCC3)c2c1` [(66), 3-(3-Morpholinopropylamino)-5-chloroindazole]: in series [1], the inhibition in vivo at 100 mg/kg turned out to be 46%. In the series “in vivo”, this molecule registered an LD50 of 246 mg/kg.
In the same order, the values of `Nc1nn(CCCN2CCCC2)c2ccc(O)cc12` [(43), 1-(3-Pyrrolidinopropyl)-3-amino-5-hydroxyindazole] are 36% and 211 mg/kg.
Consider `Nc1nn(CCCN2CCCC2)c2ccc(Cl)cc12` [(21), 1-(3-Pyrrolidinopropyl)-3-amino-5-chloroindazole], for which the inhibition in vivo at 100 mg/kg in series [1] worked out at 39%. In “in vivo”, this molecule displayed an LD50 of 311 mg/kg.
`CC(CCn1nc(N)c2cc(O)ccc21)N1CCCCC1` (stereo not drawn) [(35), 1-(3-Piperidinobutyl)-3-amino-5-hydroxyindazole] had an inhibition in vivo at 100 mg/kg in series [1] of 47%. In the series “in vivo”, this molecule had an LD50 of 246 mg/kg.
In the same order, the values of `CCN(CC)CCCn1nc(N)c2ccc(Cl)cc21` [(3), 1-(3-Diethylaminopropyl)-3-amino-6-chloroindazole] are 54% and 241 mg/kg.
In the same order, the values of `CCN(CC)CCCn1nc(N)c2c(O)cccc21` [(23), 1-(3-Diethylaminopropyl)-3-amino-4-hydroxyindazole] are 56% and 179 mg/kg.
In the same order, the values of `CCN(CC)CCCNc1nn(CCCN2CCCCC2)c2ccc(O)cc12` [(130), 1-(3-Piperidinopropyl)-3-(3-diethylaminopropylamino)-5-hydroxyindazole] are 29% and 211 mg/kg.
`CCN(CC)CCCNc1n[nH]c2ccc(C)cc12` [(51), 3-(3-Diethylaminopropylamino)-5-methylindazole] gave an inhibition in vivo at 100 mg/kg in series [1] of 60%. In “in vivo”, this molecule gave an LD50 of 231 mg/kg.
In turn, `CC1CCCC(C)N1CCCn1nc(N)c2cc(O)ccc21` (stereo not drawn) [(38), 1-[3-(2,6-Dimethylpiperidino)propyl]-3-amino-5-hydroxyindazole] came in with an inhibition in vivo at 100 mg/kg in series [1] of 31%. In addition, the LD50 in the series “in vivo” stood at 278 mg/kg.
Regarding `Oc1ccc2[nH]nc(NCCCCCCN3CCCCC3)c2c1` [(78), 3-(6-Piperidinohexylamino)-5-hydroxyindazole], the inhibition in vivo at 100 mg/kg in series [1] came to 25%. Further, in the series “in vivo”, the LD50 stood at 225 mg/kg.
For `CC1CCCC(C)N1CCCn1nc(N)c2cc(Cl)ccc21` (stereo not drawn) [(16), 1-[3-(2,6-Dimethylpiperidino)propyl]-3-amino-5-chloroindazole] the same measures were 33% and 214 mg/kg.
Consider `Clc1ccc2[nH]nc(NCCCN3CCCCCC3)c2c1` [(63), 3-(3-Homopiperidinopropylamino)-5-chloroindazole], for which the inhibition in vivo at 100 mg/kg in series [1] came out at 57%. In addition, in the series “in vivo”, the LD50 is 331 mg/kg.
Molecule `CCN(CC)C(CCNc1nn(CCC(C)N(C)C)c2ccc(Cl)cc12)CC(C)C` (stereo not drawn) [(111), 1-(3-Dimethylaminobutyl)-3-(3-diethylamino-5-methylhexylamino)-5-chloroindazole] registered an inhibition in vivo at 100 mg/kg in series [1] of 22%. In the series “in vivo”, this molecule gave an LD50 of 314 mg/kg.
For `CN1CCN(CCCn2nc(N)c3cc(O)ccc32)CC1` [(42), 1-[3-(4-Methylpiperazino)propyl]-3-amino-5-hydroxyindazole] the same measures were 24% and 341 mg/kg.
`CN1CCN(CCCNc2nn(CCCN3CCCC3)c3ccc(O)cc23)CC1` [(144), 1-(3-Pyrrolidinopropyl)-3-[3-(4-methylpiperazino)propylamino]-5-hydroxyindazole] gave an inhibition in vivo at 100 mg/kg in series [1] of 26%. This molecule registered an LD50 in the series “in vivo” of 281 mg/kg.
For `CCN(CC)CCCn1nc(NCCCCCCN2CCCCC2)c2cc(Cl)ccc21` [(97), 1-(3-Diethylaminopropyl)-3-(6-piperidinohexylamino)-5-chloroindazole] the same measures were 22% and 229 mg/kg.
In the same order, the values of `Nc1nn(CCCN2CCC(Cl)CC2)c2ccc(Cl)cc12` [(18), 1-[3-(4-Chloropiperidino)propyl]-3-amino-5-chloroindazole] are 66% and 278 mg/kg.
In turn, `Nc1n[nH]c2cc(O)ccc12` [(163), 3-Amino-6-hydroxyindazole] gave an inhibition in vivo at 100 mg/kg in series [1] of 43%. Also, in the series “in vivo”, the 50% lethal dose (LD50) was 252 mg/kg.
In the case of `CCN(CC)CCCn1nc(N)c2ccc(O)cc21` [(25), 1-(3-Diethylaminopropyl)-3-amino-6-hydroxyindazole], the inhibition in vivo at 100 mg/kg in series [1] came to 52%. For the same molecule, the LD50 in “in vivo” amounted to 301 mg/kg.
In series [1], `CCN(CC)CCCn1nc(NCCC(C)N2CCCCC2)c2cc(Cl)ccc21` (stereo not drawn) [(99), 1-(3-Diethylaminopropyl)-3-(3-piperidinobutylamino)-5-chloroindazole] came in with an inhibition in vivo at 100 mg/kg of 28%. This molecule showed an LD50 in “in vivo” of 295 mg/kg.
For `Nc1cc(N)c2[nH]nc(N)c2c1` [(167), 3,5,7-Triaminoindazole] the same measures were 85% and 171 mg/kg.
In the same order, the values of `CCN(CC)CCCNc1n[nH]c2c(Cl)cccc12` [(48), 3-(3-Diethylaminopropylamino)-7-chloroindazole] are 57% and 291 mg/kg.
For `CCCCN(CCCC)CCCn1nc(N)c2cc(Cl)ccc21` [(8), 1-(3-Di-n-butylaminopropyl)-3-amino-5-chloroindazole], at 100 mg/kg the inhibition in vivo in series [1] was 56%. The same molecule yielded an LD50 in “in vivo” of 231 mg/kg.
In the same order, the values of `CCN(CC)CCCNc1n[nH]c2ccc(N)cc12` [(49), 3-(3-Diethylaminopropylamino)-5-aminoindazole] are 55% and 244 mg/kg.
In the same order, the values of `CCN(CC)CCCn1nc(N)c2cc(Cl)ccc21` [(2), 1-(3-Diethylaminopropyl)-3-amino-5-chloroindazole] are 55% and 192 mg/kg.
For `CCN(CC)CCCNc1n[nH]c2c(I)cccc12` [(72), 3-(3-Diethylaminopropylamino)-7-iodoindazole] the same measures were 53% and 253 mg/kg.
On to `CC(CCNc1n[nH]c2ccc(Cl)cc12)N1CCCCC1` (stereo not drawn) [(57), 3-(3-Piperidinobutylamino)-5-chloroindazole], for which testing at 100 mg/kg in series [1] gave an inhibition in vivo of 54%. The same molecule showed an LD50 in the series “in vivo” of 173 mg/kg.
In turn, `CCN(CC)CCCNc1nn(CCCN(CC)CC)c2ccc(O)cc12` [(120), 1-(3-Diethylaminopropyl)-3-(3-diethylaminopropylamino)-5-hydroxyindazole] displayed an inhibition in vivo at 100 mg/kg in series [1] of 28%. In addition, in the series “in vivo”, the LD50 stood at 269 mg/kg.
Turning to `CCN(CC)CCCn1nc(NCCC(C)N2CCCCC2)c2cc(O)ccc21` (stereo not drawn) [(129), 1-(3-Diethylaminopropyl)-3-(3-piperidinobutylamino)-5-hydroxyindazole], 100 mg/kg produced 27% inhibition in vivo in series [1]. Also, the LD50 in “in vivo” was 240 mg/kg.
In series [1], `CC1CCCC(C)N1CCCNc1nn(CCCN2CCOCC2)c2ccc(O)cc12` (stereo not drawn) [(146), 1-(3-Morpholinopropyl)-3-[3-(2,6-dimethylpiperidino)propylamino]-5-hydroxyindazole] came in with an inhibition in vivo at 100 mg/kg of 32%. Further, the LD50 in “in vivo” was 198 mg/kg.
With `CCN(CC)CCCNc1n[nH]c2c(N)cc(N)cc12` [(73), 3-(3-Diethylaminopropylamino)-5,7-diaminoindazole], the inhibition in vivo at 100 mg/kg in series [1] amounted to 55%. The LD50 in the series “in vivo” was determined as 355 mg/kg.
As for `CCN(CC)CCCNc1nn(CCCN2CCOCC2)c2ccc(Cl)cc12` [(115), 1-(3-Morpholinopropyl)-3-(3-diethylaminopropylamino)-5-chloroindazole], the inhibition in vivo at 100 mg/kg in series [1] stood at 31%. Besides, the LD50 in the series “in vivo” amounted to 301 mg/kg.
In the same order, the values of `Oc1ccc2c(c1)c(NCCCN1CCCCCC1)nn2CCCN1CCCC1` [(142), 1-(3-Pyrrolidinopropyl)-3-(3-homopiperidinopropylamino)-5-hydroxyindazole] are 28% and 349 mg/kg.
For `Oc1ccc2[nH]nc(NCCCN3CCCC3)c2c1` [(87), 3-(3-Pyrrolidinopropylamino)-5-hydroxyindazole] the same measures were 38% and 238 mg/kg.
For `CCN(CC)CCCn1nc(N)c2cc(N)cc(N)c21` [(29), 1-(3-Diethylaminopropyl)-3,5,7-triaminoindazole] the same measures were 56% and 104 mg/kg.
In series [1], `CCN(CC)CCCn1nc(N)c2cc(N)ccc21` [(5), 1-(3-Diethylaminopropyl)-3,5-diaminoindazole] registered an inhibition in vivo at 100 mg/kg of 59%. Also, in “in vivo”, the LD50 is 311 mg/kg.
For `CCN(CC)CCCNc1n[nH]c2cccc(O)c12` [(67), 3-(3-Diethylaminopropylamino)-4-hydroxyindazole] the same measures were 55% and 255 mg/kg.
For the molecule `Nc1nn(CCCN2CCCCC2)c2ccc(Cl)cc12` [(11), 1-(3-Piperidinopropyl)-3-amino-5-chloroindazole], the inhibition in vivo at 100 mg/kg in series [1] was found to be 54%. Besides, the LD50 in “in vivo” was determined as 211 mg/kg.
For `Nc1n[nH]c2c(O)cccc12` [(164), 3-Amino-7-hydroxyindazole] the same measures were 42% and 231 mg/kg.
For `CCCCN(CCCC)CCCNc1n[nH]c2ccc(Cl)cc12` [(52), 3-(3-Di-n-butylaminopropylamino)-5-chloroindazole] the same measures were 61% and 211 mg/kg.
The molecule `CCN(CC)CCCn1nc(NCCCCCCN2CCCCC2)c2cc(O)ccc21` [(127), 1-(3-Diethylaminopropyl)-3-(6-piperidinohexylamino)-5-hydroxyindazole] displayed an inhibition in vivo at 100 mg/kg in series [1] of 21%. Moreover, the LD50 in “in vivo” is 198 mg/kg.
In the same order, the values of `CCN(CC)CCCNc1nn(CCCN(CC)CC)c2ccc(Cl)cc12` [(90), 1-(3-Diethylaminopropyl)-3-(3-diethylaminopropylamino)-5-chloroindazole] are 29% and 223 mg/kg.

The values are drawn from patent publication US4751302A, “Indazole derivatives” (priority 1982, dated 1988).
